Data from ChEMBL document CHEMBL4616632, “Discovery of Cyclic Boronic Acid QPX7728, an Ultrabroad-Spectrum Inhibitor of Serine and Metallo-β-lactamases” (J Med Chem, 2020).

Key:
[1] = Inhibition of […] OXA-48 using nitrocefin as substrate preincubated for 10 mins followed by substrate addition measured every 10 secs for 10 mins by spectrophotometrically analysis
[2] = biological target: Matrix metalloproteinase-9 (Homo sapiens, UniProt P14780); test: Inhibition of mammalian MMP-9 (unknown origin) using McaPLGLDpaAR-NH2 as substrate preincubated for 10 mins followed by substrate addition measured after 30 mins
Sequence of Matrix metalloproteinase-9 (P14780 whole entry): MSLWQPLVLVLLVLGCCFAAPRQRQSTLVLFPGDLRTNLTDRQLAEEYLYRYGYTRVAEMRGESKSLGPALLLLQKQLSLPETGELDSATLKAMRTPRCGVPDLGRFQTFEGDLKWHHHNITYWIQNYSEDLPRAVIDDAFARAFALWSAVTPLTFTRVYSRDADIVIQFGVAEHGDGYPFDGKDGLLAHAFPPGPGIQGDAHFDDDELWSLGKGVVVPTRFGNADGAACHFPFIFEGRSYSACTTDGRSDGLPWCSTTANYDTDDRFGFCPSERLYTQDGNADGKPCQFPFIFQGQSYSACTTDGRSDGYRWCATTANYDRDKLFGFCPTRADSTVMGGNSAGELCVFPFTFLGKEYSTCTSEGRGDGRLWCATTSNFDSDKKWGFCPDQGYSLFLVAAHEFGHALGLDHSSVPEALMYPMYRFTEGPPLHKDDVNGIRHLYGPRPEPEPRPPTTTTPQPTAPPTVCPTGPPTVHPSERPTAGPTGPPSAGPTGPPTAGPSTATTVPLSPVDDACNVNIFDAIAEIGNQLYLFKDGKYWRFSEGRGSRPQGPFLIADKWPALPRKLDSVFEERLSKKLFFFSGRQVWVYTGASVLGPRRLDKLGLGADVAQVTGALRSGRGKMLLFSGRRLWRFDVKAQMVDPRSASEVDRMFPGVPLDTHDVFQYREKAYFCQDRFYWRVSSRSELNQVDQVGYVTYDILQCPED

[3] = Cmax in rat at 100 mg/kg, po administered via gavage by HPLC/MS analysis; type: ADME, organism-based; design: dose 100 mg/kg, route oral; conditions: in vivo
[4] = AUC in rat at 1000 mg/kg, po administered via gavage by HPLC/MS analysis; type: ADME, organism-based; conditions: in vivo
Trypsin = Trypsin (Homo sapiens, UniProt P07477+P07478+P35030); test: Inhibition of mammalian trypsin (unknown origin) using N-Bz-R-AMC as substrate preincubated for 10 mins followed by substrate addition measured after 30 mins; type: protein assay
BlaVIM-1 = BlaVIM-1 (Escherichia coli, UniProt Q8GDC1); test: Inhibition of recombinant Escherichia coli VIM-1 using nitrocefin as substrate preincubated for 10 mins followed by substrate addition measured every 10 secs for 10 mins by spectrophotometrically analysis
[5] = Inhibition of recombinant Escherichia coli CTX-M-14 using nitrocefin as substrate preincubated for 10 mins followed by substrate addition measured every 10 secs for 10 mins by spectrophotometrically analysis
Pseudomonas aeruginosa [6] = test: Potentiation of ceftolozane-induced antibacterial activity against Pseudomonas aeruginosa assessed as ceftolozane MIC90 at 8 ug/ml by broth microdilution method (reference value: 4 ug/ml); type: functional
[7] = Cmax in rat at 10 mg/kg, iv administered as infusion for 0.5 hrs by HPLC/MS analysis; type: ADME, organism-based; design: dose 10 mg/kg, route intravenous; conditions: in vivo
[8] = Clearance in rat at 300 mg/kg, po administered via gavage by HPLC/MS analysis; type: ADME, organism-based; conditions: in vivo
[9] = Clearance in rat at 100 mg/kg, iv administered as infusion for 0.5 hrs by HPLC/MS analysis; type: ADME, organism-based; conditions: in vivo
Enterobacterales [10] = test: Potentiation of ceftolozane-induced antibacterial activity against Enterobacterales assessed as ceftolozane MIC50 at 8 ug/ml by broth microdilution method (reference value: 32 ug/ml); type: functional
Pseudomonas aeruginosa [11] = test: Potentiation of cefepime-induced antibacterial activity against Pseudomonas aeruginosa assessed as cefepime MIC50 at 8 ug/ml by broth microdilution method (reference value: 4 ug/ml); type: functional
[12] = Oral bioavailability in rat at 100 mg/kg in fasted condition by HPLC/MS analysis; type: ADME, organism-based; conditions: in vivo
Enterobacteriaceae [13] = test: Potentiation of meropenem-induced antibacterial activity against carbapenem-resistant Enterobacteriaceae assessed as meropenem MIC50 at 8 ug/ml by broth microdilution method (reference value: 8 ug/ml); type: functional
Enterobacterales [14] = test: Potentiation of meropenem-induced antibacterial activity against Enterobacterales assessed as meropenem MIC50 at 8 ug/ml by broth microdilution method (reference value: 1 ug/ml); type: functional
Prothrombin = Prothrombin (Homo sapiens, UniProt P00734); test: Inhibition of mammalian thrombin (unknown origin) using Benz-FVR-AMC as substrate preincubated for 10 mins followed by substrate addition measured after 30 mins
Klebsiella pneumoniae [15] = test: Potentiation of cefepime-induced antibacterial activity against carbapenem-resistant Klebsiella pneumoniae assessed as cefepime MIC50 at 8 ug/ml by broth microdilution method (reference value: 32 ug/ml); type: functional
[16] = Half life in rat at 1000 mg/kg, po administered via gavage by HPLC/MS analysis; type: ADME, organism-based; conditions: in vivo
Enterobacterales [17] = test: Potentiation of ceftolozane-induced antibacterial activity against Enterobacterales assessed as ceftolozane MIC90 at 8 ug/ml by broth microdilution method (Rvb > 32 ug/ml); type: functional
[18] = Clearance in rat at 1000 mg/kg, po administered via gavage by HPLC/MS analysis; type: ADME, organism-based; conditions: in vivo
Enterobacteriaceae [19] = test: Inhibition of NDM/VIM in carbapenem-resistant Enterobacteriaceae assessed as potentiation of ceftolozane-induced antibacterial activity by measuring ceftolozane MIC90 at 8 ug/ml by broth microdilution method (Rvb > 32 ug/ml)
[20] = Inhibition of mammalian elastase (unknown origin) using Suc-AAPA-pNA as substrate preincubated for 10 mins followed by substrate addition measured after 30 mins; design: species or system Homo sapiens
[21] = Clearance in rat at 30 mg/kg, po administered via gavage by HPLC/MS analysis; type: ADME, organism-based; conditions: in vivo
[22] = Clearance in rat at 100 mg/kg, po administered via gavage by HPLC/MS analysis; type: ADME, organism-based; conditions: in vivo
Enterobacteriaceae [23] = test: Inhibition of OXA-48 in carbapenem-resistant Enterobacteriaceae assessed as potentiation of cefepime-induced antibacterial activity by measuring cefepime MIC90 at 8 ug/ml by broth microdilution method (Rvb > 32 ug/ml)
Enterobacteriaceae [24] = test: Potentiation of ceftolozane-induced antibacterial activity against carbapenem-resistant Enterobacteriaceae assessed as ceftolozane MIC50 at 8 ug/ml by broth microdilution method (Rvb > 32 ug/ml); type: functional
Acinetobacter baumannii = test: Potentiation of ceftolozane-induced antibacterial activity against carbapenem-resistant Acinetobacter baumannii assessed as ceftolozane MIC50 at 8 ug/ml by broth microdilution method (Rvb > 32 ug/ml); type: functional
Klebsiella pneumoniae [25] = test: Potentiation of meropenem-induced bacteriostatic activity against carbapenem-resistant Klebsiella pneumoniae KP1244 harboring KPC-3, SHV-11, and SHV-12 infected in Swiss-Webster mouse model of neutropenic thigh infection assessed as log change in bacterial count in thigh at 5 mg/kg, ip administered at 2 hrs interval for 24 hrs starting from 2 hr post infection and measured post last dose (reference value: 0.62 log10CFU); type: functional
Klebsiella pneumoniae [26] = test: Inhibition of Klebsiella pneumoniae KP1009 CTX-M-15 assessed as minimum concentration of compound required to reduce the MIC of aztreonam to 4 ug/ml
Pseudomonas aeruginosa [27] = test: Potentiation of ceftolozane-induced antibacterial activity against Pseudomonas aeruginosa assessed as ceftolozane MIC50 at 8 ug/ml by broth microdilution method (reference value: 0.5 ug/ml); type: functional
Pseudomonas aeruginosa [28] = test: Potentiation of meropenem-induced antibacterial activity against Pseudomonas aeruginosa assessed as meropenem MIC90 at 8 ug/ml by broth microdilution method (reference value: 16 ug/ml); type: functional
Klebsiella pneumoniae [29] = test: Potentiation of cefepime-induced antibacterial activity against carbapenem-resistant Klebsiella pneumoniae assessed as cefepime MIC90 at 8 ug/ml by broth microdilution method (Rvb > 32 ug/ml); type: functional
Enterobacteriaceae [30] = test: Inhibition of NDM/VIM in carbapenem-resistant Enterobacteriaceae assessed as potentiation of meropenem-induced antibacterial activity by measuring meropenem MIC90 at 8 ug/ml by broth microdilution method (Rvb > 32 ug/ml)
[31] = Oral bioavailability in rat at 300 mg/kg administered via gavage by HPLC/MS analysis; type: ADME, organism-based; conditions: in vivo
[32] = Cmax in rat at 300 mg/kg, po administered via gavage by HPLC/MS analysis; type: ADME, organism-based; design: dose 300 mg/kg, route oral; conditions: in vivo
Enterobacteriaceae [33] = test: Inhibition of NDM/VIM in carbapenem-resistant Enterobacteriaceae assessed as potentiation of meropenem-induced antibacterial activity by measuring meropenem MIC50 at 8 ug/ml by broth microdilution method (reference value: 32 ug/ml)

O=C(O)c1c(F)ccc2c1OB(O)[C@@H]1C[C@H]21 [XERUBORBACTAM]
Ki [1]: 0.00028 µM | IC50 [2]: > 1000 µM | Cmax [3]: 28800 ng/mL | AUC [4]: 504 µg·h/mL | IC50 (Trypsin): > 1000 µM | Ki (BlaVIM-1): 0.008 µM | Ki [5]: 0.00029 µM | MIC90 (Pseudomonas aeruginosa [6]): 1 µg/mL | Cmax [7]: 26100 ng/mL | CL/F [8]: 28.5 mL/min/kg | clearance [9]: 7.83 mL/min/kg | MIC50 (Enterobacterales [10]): 0.125 µg/mL | MIC50 (Pseudomonas aeruginosa [11]): 2 µg/mL | bioavailability [12]: 53% | MIC50 (Enterobacteriaceae [13]): 0.125 µg/mL | MIC50 (Enterobacterales [14]): ≤ 0.015 µg/mL | IC50 (Prothrombin): > 100 µM | MIC50 (Klebsiella pneumoniae [15]): ≤ 0.06 µg/mL | half-life [16]: 4 h | MIC90 (Enterobacterales [17]): 8 µg/mL | CL/F [18]: 34.2 mL/min/kg | MIC90 (Enterobacteriaceae [19]): > 32 µg/mL | IC50 [20]: 101 µM | CL/F [21]: 15.2 mL/min/kg | CL/F [22]: 18.5 mL/min/kg | MIC90 (Enterobacteriaceae [23]): 0.5 µg/mL | MIC50 (Enterobacteriaceae [24]): 0.125 µg/mL | MIC50 (Acinetobacter baumannii): 8 µg/mL | Activity (Klebsiella pneumoniae [25]): -0.88 log10CFU | MEC (Klebsiella pneumoniae [26]): 0.3 µg/mL | MIC50 (Pseudomonas aeruginosa [27]): 0.5 µg/mL | MIC90 (Pseudomonas aeruginosa [28]): 8 µg/mL | MIC90 (Klebsiella pneumoniae [29]): 0.25 µg/mL | MIC90 (Enterobacteriaceae [30]): 2 µg/mL | bioavailability [31]: 28% | Cmax [32]: 52000 ng/mL | MIC50 (Enterobacteriaceae [33]): < 0.015 µg/mL
